Assay results: patent US7314969B2, “Methods and compositions for the introduction of molecules into cells” (priority 1999, dated 2008)
Where two headings read alike, the source gives them in different places.

Columns and labels:
DH5 cells = type: cell-based, E. coli; conditions: 10 mg/l tetracycline
Protocol: One microgram of supercoiled pSB1 was added to 1.0 ml of sterile ddH2O and briefly vortexed. […] For a control SB1 plasmid was used without the addition of any cationic polypeptides. Transformation of bacteria was carried out as described in Example 17. Briefly, subcloning efficient DH5 cells from Invitrogen were transformed. Ten microliters of cells were mixed with 0.1 ml of YP medium (10 g/L peptone, 5 g/L yeast extract, and 5 g/L NaCl). The cells were pipeted in the center of a YP plate (same as above plus 15.0 g/L agar) and allowed to dry in a laminar flow hood. The pSB1 plus or minus cationic polypeptides was introduced into the cells using an aerosol beam injector as described in parent U.S. patent application Ser. No. 09/724,265. After about 1 hour of incubation at 37° C., the aerosol beamed cells plus the YP medium were cut out as a slab and placed on YP medium with 10 mg/1 tetracycline. Plasmid SB1 harbors resistance to the antibiotic tetracycline. The cells were grown overnight at 37° C. and then evaluated for the presence of colonies that were growing on the medium. If the plasmid pSB1 were sheared it would not replicate in the cell, thus no antibiotic resistant colony would have formed, however, if the plasmid was not sheared it could replicate once inside the cell and an antibiotic colony would have appeared.

[1] = test system: embryogenic soybean callus; assay: Effect of media constituents on growth of embryogenic soybean callus in B1-30; type: cell-based
Excerpt: In another embodiment of the present invention, a novel culture media may be used to stimulate high frequency production of embryogenic soybean callus. Improvement varied with the genotype being cultured. […] The inclusion of one or more of four media constituents, coconut water, myoinositol, phytic acid and inorganic phosphate concentration, enhanced embryogenic callus production and allowed significant improvements to be made to transgenic clone production in terms of number of clones recovered, embryo morphology, and reduction in the time needed to identify the clones and regenerate plants from them. The medium of Ranch et al., 1985 (referred to herein as B1-30) was used as the basal medium. An example of the medium of the present invention is B1-30 3Co5My0.25PA0.5K (footnote, Table 5). Although this medium is a preferred emobodiment of growth medium, other conventional media may be utilized in the practice of the invention.
Coconut water has been included in tissue culture media for over 50 years. Coconut water is liquid taken from coconuts to promote growth in plant tissue cultures. It is deproteinized then filter-sterilized. An example is Sigma Biosciences' Cat. No. C5915. […] Most commonly coconut water is used at concentrations of between 5% and 10% by volume of the final culture medium. The role of coconut water in stimulating the growth of embryogenic callus in soybean was investigated and it was discovered that its effect on cotyledon explants routinely used to initiate embryogenic callus of soybean was detrimental when tested at these concentrations.
One key component of coconut water is myoinositol (Pollard et al., 1961). In an attempt to improve the growth of embryogenic soybean callus with components of coconut water, it was discovered that myoinositol was effective in this regard. Myoinositol has been included in tissue culture media for a variety of plant species. Although apparently not required for all species (Halperin, 1966), it is routinely included in media such as the widely used Murashige and Skoog formulation (Murashige and Skoog, 1962) at a concentration of 100 mg/l. It is at this concentration that it has been included in media used for the culture of embryogenic callus of soybean (e.g., see Ranch et al., 1985).
There are no known reports of the inclusion of phytic acid in culture media for any plant species. Soybean seeds are rich in natural chelating agents, the most prominent of which is phytic acid (Gibson and Ullah, 1990). Substantial amounts of phosphate are stored in seeds in the form of phytate (Raboy, 1990). It is possible that the capacity of phytic acid to sequester inorganic phosphate has a significant impact upon C partitioning into either starch or sucrose. At 1 gm/l in B1-30, embryogenic callus of a range of genotypes exuded starch, possibly confirming the impact of phytic acid on C partitioning. […] Best results over many passages were obtained with the addition of about 5 mg/l to about 250 mg/l phytic acid to the culture medium depending on the genotype.
Inorganic phosphorous in the form of KH2PO4, in excess of the amount conventionally used, was added to the base medium (B1-30) along with myoinositol and coconut water. This medium was tested against B1-30 supplemented with phytic acid in addition to KH2PO4, myoinositol and coconut water.

bacterial cells = type: cell-based, E. coli
Protocol: Transformation of bacteria using the method of the invention was accomplished as follows: competent E. coli DH5 alpha (Gibco BRL) or HB101 cells were thawed on ice and 5 to 50 microliters were combined with 0.2 ml LB broth. The mixture was pipetted to the center of a plate of LB agar (1.5%) containing 100 mg/l ampicillin and allowed to dry. Aerosol beam parameters were the same as those described previously (Example 1) except as noted in this Example. A pUC-derived plasmid encoding for resistance to the antibiotic ampicillin was delivered to the bacterial cells, as is known in the art. The concentration of DNA ranged from about 1.0 to 1000 μg/ml in 10 mM Tris (pH7.0) or a carbohydrate molecule, such as 1 g/l sucrose. The nebulizing pressure was from about 10 to about 40 psi, preferably 30 to 40 psi. The entrainment temperature was maintained in a given experiment and ranged between experiments from about 24° to about 55° C., and was preferably maintained at about 42° to about 55° C. and most preferably at about 55° C. Various sample flow rates were tested ranging from about 0.25 ml/hour to about 2.0 ml/hour (about 4 μl/min. to about 33 μl/min.). Preferably the flow rate was about 8.0 μl/minute to about 17.0 μl/minute.
Nucleic acid and protein were simultaneously delivered into bacterial cells. Preparation of bacteria and parameters for the aerosol beam apparatus were the same as described previously for delivery of DNA into bacteria (Example 12). The same buffer, plasmid, and plasmid concentration was used as described in the transformation of bacteria. Ribonuclease A (RNASE A) (Sigma cat. no. R6513) was added to the DNA sample at a final concentration of 2.5 μg/ml.
As a control, RNASE A at the same concentration used for beaming was pipetted on the cells after the cells were beamed with DNA only. […] To verify that the RNASE A was not degrading the plasmid, the plasmid treated with RNASE A was run on a standard 1% agarose gel. After staining the DNA with ethidium bromide, the DNA appeared intact and no degradation was evident. […]

[2] = 1 microgram pSB1 in 1.0 ml plus 1.0 ul of 2.0 ug/ul polyamine
[3] = 1 microgram pSB1 in 1.0 ml plus 2.0 ul of 20 ug/ul cationic polypeptide

## NCCCCNCCCN [spermidine]
DH5 cells; [2]
  transformed colonies growing per plate: about 500 colonies per plate

## O=P([O-])(O)O.[K+] [KH2PO4]
[1]; 500 and 1000 mg/l added to B1-30 with myoinositol and coconut water, with and without phytic acid
  effect on embryogenic soybean callus: Beneficial effects

## Poly-L-Lysine
DH5 cells; [3]
  transformed colonies growing per plate: about 500 colonies per plate

## Poly-L-Ornithine
DH5 cells; [3]
  transformed colonies growing per plate: about 500 colonies per plate

## NCCCNCCCCNCCCN [spermine]
DH5 cells; [2]
  transformed colonies growing per plate: about 500 colonies per plate

## O[C@H]1[C@H](O)[C@@H](O)[C@H](O)[C@@H](O)[C@H]1O [myoinositol]
[1]; up to 10 g/l, alone or in combination with coconut water
  effect on growth of embryogenic soybean callus: pronounced and beneficial effect

## O=P(O)(O)O[C@H]1[C@H](OP(=O)(O)O)[C@@H](OP(=O)(O)O)[C@H](OP(=O)(O)O)[C@@H](OP(=O)(O)O)[C@H]1OP(=O)(O)O [phytic acid, inositolhexaphosphoric acid]
[1]; 1, 5, 10, 50, 100, 250, 500 and 1000 mg/l in B1-30, initial culture passage and/or maintenance as stock culture
  rate of growth of embryogenic callus: significantly increased
[1]; 1 gm/l in B1-30, range of genotypes
  growth of soybean callus after initial starch exudation: grew very vigorously
[1]; 3000 mg/l, callus browned and died
  effect on embryogenic callus: clear detrimental effect

B1: RNASE A: Ribonuclease A (Sigma cat. no. R6513) (protein, UniProt P61823 27-150, looked up)
Ribonuclease pancreatic: KETAAAKFERQHMDSSTSAASSSNYCNQMMKSRNLTKDRCKPVNTFVHESLADVQAVCSQKNVACKNGQTNCYQSYSTMSITDCRETGSSKYPNCAYKTTQANKHIIVACEGNPYVPVHFDASV
Bacterial cells; 2.5 μg/ml beamed together with DNA
  colonies on medium containing ampicillin: no colonies were observed
Bacterial cells; same concentration pipetted on the cells after beaming with DNA only
  colonies on medium containing ampicillin: transformed colonies grew

B2: inactivated RNASE A: RNASE A inactivated with diethylpyrocarbonate (DEP) (protein, UniProt P61823 27-150, looked up)
Ribonuclease pancreatic: B1 Ribonuclease pancreatic
modifications: inactivated with diethylpyrocarbonate
Bacterial cells; RNASE A inactivated with diethylpyrocarbonate, beamed with DNA
  transformation of bacteria: normal transformation of bacteria
